Source: patent publication US20250009689A1, “GASTRO-RETENTIVE ORAL DOSAGE UNIT CONTAINING A LOCAL ANAESTHETIC” (OREXA B.V., priority 2021, published 2025)
Marks after values point to notes of the source that are not given here.

What was measured:
[1] = tested on: fundus strips (stomach muscularis); assay: Fundus strip length after acetylcholine-induced contraction; set-up: species or system domestic pigs; conditions: for Strip length (as percentage of baseline): 70 mg/L + acetylcholine 10^-4 M, 37° C.
Protocol: Within the gastro-intestinal tract, local circuits play a role in the regulation of food intake and transport. Mechanical extension of the stomach as a result of food intake activates stretch receptors (neurons) which in turn induces satiety signals. The pharmacology of stretch receptors can be analyzed in fundus strip preparations. Fresh stomach tissue (0-1 h after slaughter) was collected from routinely slaughtered domestic pigs. The fundus region of the stomach was removed and washed with cold saline (0.9% NaCl) solution. Tissue was submerged in clean cold saline and transported to the laboratory (transport time 30 min.). The mucosa and submucosa were removed from the muscularis (muscle layer). The muscularis was cut along the longitudinal muscle fibres in strips of approximately 1 by 5 cm. The strips were incubated for 15 min in a 37° C. saline solution. Thereafter, fundus strips were placed vertically in a transparent container, kept at 37° C. Stretching was ensured by a 5 g weight at the bottom of the strip. Test solutions were added into the container. Acetylcholine (10^−4M) exposure was used to induce a contraction of the fundus tissue. Pictures were taken at 0, 5, 10, 15, 30, 45 and 60 minutes after the start of the experiment with a digital camera. The length of the strips was measured by a blinded assessor (unknowing of the treatment) using Photoshop software (Adobe).

[2] = tested on: fundus strips (stomach muscularis); assay: Acid sensitivity of lidocaine: acetic acid pre-exposure, then fundus strip experiment; set-up: species or system domestic pigs
Protocol: Fresh stomach tissue (0-1 h after slaughter) was collected from routinely slaughtered domestic pigs. The fundus region of the stomach was removed and washed with cold saline (0.9% NaCl) solution. Tissue was submerged in clean cold saline and transported to the laboratory (transport time 30 min.).
The mucosa and submucosa were removed from the muscularis (muscle layer). The muscularis was cut along the longitudinal muscle fibres in strips of approximately 1 by 5 cm. The strips were incubated for 15 min in a 37° C. saline solution.
Thereafter, fundus strips were placed vertically in a transparent container, kept at 37° C. Stretching was ensured by a 5 g weight at the bottom of the strip. Test solutions were added into the container. Acetylcholine (10^−4M) exposure was used to induce a contraction of the fundus tissue. Pictures were taken at 0, 5, 10, 15, 30, 45 and 60 minutes after the start of the experiment with a digital camera. The length of the strips was measured by a blinded assessor (unknowing of the treatment) using Photoshop software (Adobe). Values were expressed as percentage of baseline (t=0 min).
The acid sensitivity of lidocaine was determined by exposing lidocaine to acetic acid (pH 2.5) for 1, 5 and 15 minutes before carrying out experiments on fundus strips, as in Example 5.

CCOC(=O)c1ccc(N)cc1 [Benzocaine, benzocaine]
Strip length (as percentage of baseline) ([1]; time 0 min (baseline)): 100 percentage of baseline
Strip length (as percentage of baseline) ([1]; time 5 min): 102.7* percentage of baseline
Strip length (as percentage of baseline) ([1]; time 10 min): 102.3* percentage of baseline
Strip length (as percentage of baseline) ([1]; time 15 min): 102.4** percentage of baseline
Strip length (as percentage of baseline) ([1]; time 30 min): 101.5* percentage of baseline
Strip length (as percentage of baseline) ([1]; time 45 min): 101.3** percentage of baseline
Strip length (as percentage of baseline) ([1]; time 60 min): 101.3** percentage of baseline

CCCCN1CCCCC1C(=O)Nc1c(C)cccc1C (centres unmarked) [Bupivacaine, bupivacaine]
Strip length (as percentage of baseline) ([1]; time 0 min (baseline)): 100 percentage of baseline
Strip length (as percentage of baseline) ([1]; time 5 min): 106.4*** percentage of baseline
Strip length (as percentage of baseline) ([1]; time 10 min): 107.1*** percentage of baseline
Strip length (as percentage of baseline) ([1]; time 15 min): 107.0*** percentage of baseline
Strip length (as percentage of baseline) ([1]; time 30 min): 106.8*** percentage of baseline
Strip length (as percentage of baseline) ([1]; time 45 min): 104.9*** percentage of baseline
Strip length (as percentage of baseline) ([1]; time 60 min): 101.9*** percentage of baseline

CCN(CC)CC(=O)Nc1c(C)cccc1C [Lidocaine, lidocaine]
Strip length (as percentage of baseline) ([1]; time 0 min (baseline)): 100 percentage of baseline
Strip length (as percentage of baseline) ([1]; time 5 min): 105.7** percentage of baseline
Strip length (as percentage of baseline) ([1]; time 10 min): 103.6* percentage of baseline
Strip length (as percentage of baseline) ([1]; time 15 min): 101.8* percentage of baseline
Strip length (as percentage of baseline) ([1]; time 30 min): 99.5 percentage of baseline
Strip length (as percentage of baseline) ([1]; time 45 min): 98.7 percentage of baseline
Strip length (as percentage of baseline) ([1]; time 60 min): 98.0* percentage of baseline
Effect on contraction induced by acetylcholine ([1]; lidocaine 70 mg/L, conclusion in words): reversed
Acid sensitivity (activity after exposure to low pH) ([2]; acetic acid pH 2.5, conclusion in words): inactivated at low pH
Activity on acetylcholine induced contraction after shortest acid exposure ([2]; acid exposure time 1 min, conclusion in words): remains active
Strip length (percentage of baseline) ([2]; lidocaine exposed 1 min. to acetic acid pH 2.5, time 0 min (baseline)): 100 percentage of baseline
Strip length (percentage of baseline) ([2]; lidocaine exposed 1 min. to acetic acid pH 2.5, time 5 min): 114.9 percentage of baseline
Strip length (percentage of baseline) ([2]; lidocaine exposed 1 min. to acetic acid pH 2.5, time 10 min): 115.8 percentage of baseline
Strip length (percentage of baseline) ([2]; lidocaine exposed 1 min. to acetic acid pH 2.5, time 15 min): 116.7 percentage of baseline
Strip length (percentage of baseline) ([2]; lidocaine exposed 1 min. to acetic acid pH 2.5, time 30 min): 116.2* percentage of baseline
Strip length (percentage of baseline) ([2]; lidocaine exposed 1 min. to acetic acid pH 2.5, time 45 min): 115.0* percentage of baseline
Strip length (percentage of baseline) ([2]; lidocaine exposed 1 min. to acetic acid pH 2.5, time 60 min): 113.6* percentage of baseline
Strip length (percentage of baseline) ([2]; lidocaine exposed 5 min. to acetic acid pH 2.5, time 0 min (baseline)): 100 percentage of baseline
Strip length (percentage of baseline) ([2]; lidocaine exposed 5 min. to acetic acid pH 2.5, time 5 min): 108.9 percentage of baseline
Strip length (percentage of baseline) ([2]; lidocaine exposed 5 min. to acetic acid pH 2.5, time 10 min): 108.3 percentage of baseline
Strip length (percentage of baseline) ([2]; lidocaine exposed 5 min. to acetic acid pH 2.5, time 15 min): 108.0 percentage of baseline
Strip length (percentage of baseline) ([2]; lidocaine exposed 5 min. to acetic acid pH 2.5, time 30 min): 108.0 percentage of baseline
Strip length (percentage of baseline) ([2]; lidocaine exposed 5 min. to acetic acid pH 2.5, time 45 min): 106.8 percentage of baseline
Strip length (percentage of baseline) ([2]; lidocaine exposed 5 min. to acetic acid pH 2.5, time 60 min): 104.9 percentage of baseline
Strip length (percentage of baseline) ([2]; lidocaine exposed 15 min. to acetic acid pH 2.5, time 0 min (baseline)): 100 percentage of baseline
Strip length (percentage of baseline) ([2]; lidocaine exposed 15 min. to acetic acid pH 2.5, time 5 min): 106.3 percentage of baseline
Strip length (percentage of baseline) ([2]; lidocaine exposed 15 min. to acetic acid pH 2.5, time 10 min): 105.9 percentage of baseline
Strip length (percentage of baseline) ([2]; lidocaine exposed 15 min. to acetic acid pH 2.5, time 15 min): 105.2 percentage of baseline
Strip length (percentage of baseline) ([2]; lidocaine exposed 15 min. to acetic acid pH 2.5, time 30 min): 102.4 percentage of baseline
Strip length (percentage of baseline) ([2]; lidocaine exposed 15 min. to acetic acid pH 2.5, time 45 min): 97.6 percentage of baseline
Strip length (percentage of baseline) ([2]; lidocaine exposed 15 min. to acetic acid pH 2.5, time 60 min): 93.8 percentage of baseline

CN(C(=O)CN(CCO)CC(=O)N(C)C(C)(C)Cc1ccccc1)C(C)(C)Cc1ccccc1 [Oxethazaine]
Strip length (as percentage of baseline) ([1]; time 0 min (baseline)): 100 percentage of baseline
Strip length (as percentage of baseline) ([1]; time 5 min): 104.5 percentage of baseline
Strip length (as percentage of baseline) ([1]; time 10 min): 104.8* percentage of baseline
Strip length (as percentage of baseline) ([1]; time 15 min): 104.3* percentage of baseline
Strip length (as percentage of baseline) ([1]; time 30 min): 101.3 percentage of baseline
Strip length (as percentage of baseline) ([1]; time 45 min): 98.2 percentage of baseline
Strip length (as percentage of baseline) ([1]; time 60 min): 94.6 percentage of baseline

CCCNC(C)C(=O)Nc1ccccc1C (centres unmarked) [Prilocaine, prilocaine]
Strip length (as percentage of baseline) ([1]; time 0 min (baseline)): 100 percentage of baseline
Strip length (as percentage of baseline) ([1]; time 5 min): 105.1* percentage of baseline
Strip length (as percentage of baseline) ([1]; time 10 min): 105.8** percentage of baseline
Strip length (as percentage of baseline) ([1]; time 15 min): 106.2** percentage of baseline
Strip length (as percentage of baseline) ([1]; time 30 min): 106.3** percentage of baseline
Strip length (as percentage of baseline) ([1]; time 45 min): 104.1* percentage of baseline
Strip length (as percentage of baseline) ([1]; time 60 min): 100.2* percentage of baseline
